# Source: patent US4007165A (priority 1974, dated 1977)
# Tests used:
# [1] = Polymerization of styrene in sealed tube at 70° C; conditions: for dry polymer weight: 10.0 grams styrene
# Description: An 18 × 150 mm pyrex test tube was filled with 10.0 grams of distilled styrene monomer and 0.121 grams (8.4 × 10^^-4 moles) of 2-t-butylazo-2-hydroxypropane. The test tube was flushed out with nitrogen and placed in a constant temperature bath thermostatted at 70° C. After 4.0 hours at 70° C, the tube was removed and quickly chilled to -20° F to prevent post polymerization. The sealed tube was then broken and the polymer dissolved in 1000 ml of methanol to precipitate the polystyrene. The polymer was separated by filtration and dried in an oven at 50°-55° C. The dry polymer weighed 3.4 grams (34% conversion). The rate of conversion of monomer to polymer was 8.5% per hour.
# An 18 × 150 mm pyrex test tube was filled with 10.0 grams of distilled styrene monomer and 0.134 grams (8.5 × 10^^-4 moles) of 2-t-butylazo-2-hydroxybutane from Example V. The test tube was flushed out with nitrogen and placed in a constant temperature thermostatted bath at 70° C. After 6.0 hours at 70° C, the tube was removed and quickly chilled to -20° F to prevent post polymerization. The sealed tube was then broken and the polymer dissolved in 1000 ml of methanol to precipitate the polystyrene. The polymer was separated by filtration and dried in an oven at 50°-55° C. The dry polymer weighed 4.8 grams (48% conversion). The rate of conversion of monomer to polymer was 8.0% per hour.
# [2] = Curing of unsaturated polyester-styrene resin
# Description: An unsaturated polyester resin was made by reacting maleic anhydride (1.0 mole), phthalic anhydride (1.0 mole), and propylene glycol (2.2 moles) until an acid number of 45-50 was obtained. To this was added hydroquinone at a 0.013% concentration. Seven parts of this unsaturated polyester was diluted with 3 parts of monomeric styrene to obtain a homogeneous blend having a viscosity of 13.08 poise and a specific gravity of 1.14.
# To 20 grams of this blend was added 0.128 gram of alpha-(tert.-butylazo)isobutyronitrile and the resultant composition placed in a constant temperature bath at 212° F. (100° C.). […] At 180° F. (82.2° C.), a peak exotherm of 381° F. (193.9° C.) was obtained in 13.3 minutes. The resultant cured materials were very hard.
# The procedure of Example III was used at 212° F. (100° C.) and 240° F. (115.6° C.) where peak exotherms of 414° F. (212.2° C.) and 440° F. (226.7° C.) were obtained after 10.0 and 5.3 minutes respectively using 0.2 gram of the 1-tert.-butylazo-1-cyanocyclohexane. The resultant cured resins were very hard.
# The curing procedure and resin are described in Example III.
# [3] = Curing of unsaturated polyester-styrene resin; remark: listed apart in the source
# [4] = Polymerization of styrene, dilatometer rates; conditions: rate at 10% conversion
# Description: A solution of styrene containing 5 × 10^-^4 moles per deciliter of alpha-(tert.-butylazo)isobutyronitrile was heated at 85° C. and the change in density, which is a measure of polymer formation, was followed by means of a dilatometer to measure polymerization rates at 5% and 10% conversion to polystyrene. […] Without the alpha-(tert.-butylazo)-isobutyronitrile, the 5 and 10% rates were 0.92 × 10^-^3 moles per liter per minute. Thus, this azo compound initiated the polymerization of styrene at 85° C.
# The procedure of Example II was used at 85° C. and 100° C. […] Without the 1-tert.-butylazo-1-cyanocyclohexane, the 5% and 10% rates at 100° C. were 2.81 × 10^-^3 moles per liter per minute.
# A solution of styrene containing 5×10^^-4 moles per deciliter of the tert.-alkyl-α-substituted-azoalkane was heated in a constant temperature oil bath (the temperature of the bath depending on the thermal stability of the individual azo compounds) and the change in density, which is a measure of polymer formation, was followed by means of a dilatometer to measure polymerization rates (Rp) at 5% and 10% conversion to polystyrene. The rates obtained at 5% and 10% conversion are recorded in moles per liter per minute in Table LXXXII for the individual azo compounds. Their rate at 10% conversion (f1) is divided by the rate of a standard (f2) at the same temperature and concentration to give an efficiency rating f1 / f2.
# [5] = for temperature at which it begins to evolve nitrogen: onset; for gas/nitrogen evolution or decomposition: room temperature or on melting
# [6] = Thermal decomposition half-life; format: physicochemical; conditions: gas evolution technique, trichlorobenzene solvent
# Description: It produces 179 cc. of gas per gram at 110° C. The following half-life data have been determined:
# The following half-life data have been determined by gas evolution technique using trichlorobenzene as the solvent: […]
# [7] = Oxidation of iodide ion to free iodine
# [8] = 85° C., standard f2 benzoyl peroxide
# [9] = 180° F. (82.2° C.), loading not given
# [10] = 212° F. (100° C.), loading not given
# [11] = 212° F. (100° C.), 1.0 weight per cent
# [12] = 240° F. (115.6° C.), 1.0 weight per cent
# [13] = 265° F. (129.4° C.), 1.0 weight per cent
# [14] = 180° F. (82.2° C.), 1.0 weight per cent
# [15] = room temperature, 1.0 weight per cent
structure (smiles),measurement,setting,value
CCC(C)(O)N=NC(C)(C)C (stereo not drawn) [2-t-butylazo-2-hydroxybutane],rate of conversion of monomer to polymer,[1]; 6.0 hours,8.0 % per hour
same,conversion,"[1]; 6.0 hours, 8.5 × 10^^-4 moles in 10.0 grams styrene",48%
same,dry polymer weight,[1]; 6.0 hours,4.8 grams
"CCCCC(C)(CC(C)C)N=NC(C)(C)C (stereo not drawn) [Example LXI, 4-t-Butylazo-2,4-dimethyloctane]",Barcol Hardness,[2]; bath 130° C.,40
same,Minutes to Peak Exotherm,[2]; bath 130° C.,11.1 min
same,peak exotherm,[3]; bath 130° C.,382 ° F
"CC(C)CC(C)(N=NC(C)(C)C)c1ccccc1 (stereo not drawn) [Example LXII, 2-t-Butylazo-2-phenyl-4-methylpentane]",f1 /f2 efficiency rating,"[4]; 70° C., standard f2 benzoyl peroxide",1.41
"CC(C)(C)N=NC1(c2ccccc2)CCCCC1 [Example LXIII, 1-t-Butylazo-1-phenylcyclohexane]",f1 /f2 efficiency rating,[4]; [8],1.32
same,Barcol Hardness,[2]; bath 100° C.,35
same,Minutes to Peak Exotherm,[2]; bath 100° C.,4.8 min
same,peak exotherm,[2]; bath 100° C.,435 ° F
"CC(C)(C)N=NC(C)(C#N)C1CC1 (stereo not drawn) [Example XII, Alpha-tert-butylazo-alpha-cyclopropylpropionitrile]",temperature at which it begins to evolve nitrogen,[5],75 °C
same,hardness of cured resin,[2],very hard
same,peak exotherm,[2]; [9],403 ° F.
same,time to peak exotherm,[2]; [9],3.3 min
same,peak exotherm,[2]; [10],420 ° F.
same,time to peak exotherm,[2]; [10],2.1 min
"CC(C)(C)N=NC(N)=O [Example XIII, tert.-butylazoformamide]",hardness of cured resin,[2],very hard
same,peak exotherm,[2]; [11],407 ° F.
same,time to peak exotherm,[2]; [11],7.1 min
same,peak exotherm,[2]; [12],430 ° F.
same,time to peak exotherm,[2]; [12],5.9 min
same,peak exotherm,[2]; [13],438 ° F.
same,time to peak exotherm,[2]; [13],4.5 min
same,t 1/2,[6]; 110° C,5.73 h
same,t 1/2,[6]; 120° C,3.00 h
same,t 1/2,[6]; 130° C,0.87 h
same,t 1/2,[6]; 150° C,0.14 h
"CC(C)(C)N=NC(=O)C(C)(C)C [Example XIX, Pivaloyl tert.-butyldiimide]",temperature at which it evolves nitrogen,[5],35 °C
same,hardness of cured resin,[2],very hard
same,peak exotherm,[2]; [14],289 ° F.
same,time to peak exotherm,[2]; [14],4.9 min
same,time to peak exotherm,[2]; [15],34.1 min
same,peak exotherm,[3]; [15],139 ° F.
"CC(C)(C)N=NC(=O)c1ccccc1 [Example XX, Benzoyl tert.-butyldiimide]",temperature at which it evolves nitrogen,[5],25 °C
same,hardness of cured resin,[2],hard
same,peak exotherm,[2]; [14],233 ° F.
same,time to peak exotherm,[2]; [14],10.0 min
"CC(C)(C)N=NC(C)(C)C(N)=O [Example XXV, 2-t-butylazo-2-carbamylpropane]",temperature at which it evolves nitrogen,[5],above 120 °C
same,peak exotherm,[2]; [12],442 ° F.
same,time to peak exotherm,[2]; [12],5.7 min
"CC(C)CC(C)(N=NC(C)(C)C)NNC(C)(C)C (stereo not drawn) [LXIX, 2-t-Butylazo-2-t-butylhydrazo-4-methylpentane]",gas/nitrogen evolution or decomposition,[5],evolves nitrogen at room temperature
same,Barcol Hardness,[2]; bath 82° C.,40
same,Minutes to Peak Exotherm,[2]; bath 82° C.,1.4 min
same,peak exotherm,[2]; bath 82° C.,275 ° F
"CC(C)(C)N=NC(C)(C)O [LXXII, 2-t-Butylazo-2-hydroxypropane]",rate of conversion of monomer to polymer,[1]; 4.0 hours,8.5 % per hour
same,conversion,"[1]; 4.0 hours, 8.4 × 10^^-4 moles in 10.0 grams styrene",34%
same,dry polymer weight,[1]; 4.0 hours,3.4 grams
"CC(C)(C)N=NC1(N=[N+]=[N-])CCCCC1 [XLI, 1-t-butylazo-1-azidocyclohexane]",f1 /f2 efficiency rating,"[4]; 100° C., standard f2 t-butyl perbenzoate",0.58
"COC(C)(C)CC(C)(N=NC(C)(C)C)N=[N+]=[N-] (stereo not drawn) [XLIV, 2-t-butylazo-2-azido-4-methyl-4-methoxypentane]",f1 /f2 efficiency rating,[4]; [8],1.19
"CN(C)C(=O)N=NC(C)(C)C [XV, tert.-butylazo-N,N-dimethylformamide]",oxidizing of iodide ion,[7],oxidized iodide ion to free iodine
"COC(=O)CNC(=O)N=NC(C)(C)C [XVI, tert.-butylazo-N-carbmethoxymethylformamide]",oxidizing of iodide ion,[7],oxidized iodide ion to free iodine
same,temperature at which it begins to evolve nitrogen,[5],140 °C
same,hardness of cured resin,[2],very hard
same,peak exotherm,[2]; [12],356 ° F.
same,time to peak exotherm,[2]; [12],15.8 min
same,peak exotherm,[2]; [13],484 ° F.
same,time to peak exotherm,[2]; [13],5.1 min
"CC(C)(C)N=NC(=O)NCC(=O)O [XVII, tert.-butylazo-N-carboxymethylformamide]",oxidizing of iodide ion,[7],oxidized iodide ion to free iodine
same,temperature at which it begins to evolve nitrogen,[5],60 °C
"CC(C)(N=NC(N)=O)c1ccccc1 [XVIII, Tert.-cumylazoformamide]",oxidizing of iodide ion,[7],oxidized iodide ion to free iodine
same,gas/nitrogen evolution or decomposition,[5],rapidly evolves nitrogen upon melting
same,hardness of cured resin,[2],very hard
same,peak exotherm,[2]; [12],422 ° F.
same,time to peak exotherm,[2]; [12],10.3 min
same,peak exotherm,[2]; [13],454 ° F.
same,time to peak exotherm,[2]; [13],6.0 min
"CC(C)(C)N=Nc1nc(N=NC(C)(C)C)nc(N=NC(C)(C)C)n1 [XXI, 2,4,6-Tri-(tert.-butylazo)-1,3,5-triazine]",oxidizing of iodide ion,[7],oxidized iodide ion to free iodine
same,temperature at which it begins to evolve nitrogen,[5],102 °C
"CC(C)(C)N=NC1=CCCCC1 [XXIII, 1(-tert.-butylazo)cyclohexene]",temperature at which it evolves nitrogen,[5],60 °C
same,gelling of resin,[3]; room temperature,gelled
"CC(C)(C)N=NC1(C(N)=O)CCCCC1 [XXIV, 1-tert. butylazo-1-carbamylcyclohexane]",temperature at which it evolves nitrogen,[5],above 120 °C
same,peak exotherm,[2]; [12],444 ° F.
same,time to peak exotherm,[2]; [12],6.8 min
"COC1(N=NC(C)(C)C)CCCCC1 [XXXV, 1-t-butylazo-1-methoxycyclohexane]",Minutes to Peak Exotherm,[2]; bath 145° C.,5.7 min
same,peak exotherm,[2]; bath 145° C.,396 ° F
same,Barcol Hardness,[3]; bath 145° C.,40
"COC(C)(C)CC(C)(N=NC(C)(C)C)OC (stereo not drawn) [XXXVIII, 2-t-butylazo-4-methyl-2,4-dimethoxypentane]",f1 /f2 efficiency rating,"[4]; 115° C., standard f2 di-t-butyl peroxide",0.38
